From patent publication US20100112061A1, “Monophosphates as Mutual Prodrugs of Muscarinic Receptor Antagonists and Beta-Agonists for the Treatment of COPD And Chronic Bronchitis” (priority 2006, published 2010)

Tests used:
alkaline phosphatase = alkaline phosphatase (Homo sapiens, UniProt P05187); test: Conversion of the mutual MRA-β-agonist prodrug to salmeterol and MRA after exposure to alkaline phosphatase in vitro (LCMS); assay type: in vitro ADME; conditions: for Example 29 (GS-343071) in ALP (Peak Area Ratio) Normalized / Example 29 (GS-343071) in ALP (Peak Area Ratio) mean / Formation of dipeptide (Sagara 2006) in ALP (Peak Area Ratio) Normalized / Formation of dipeptide (Sagara 2006) in ALP (Peak Area Ratio) mean: alkaline phosphatase; for Formation of dipeptide (Sagara 2006) in ALP (Peak Area Ratio) Normalized / Formation of dipeptide (Sagara 2006) in ALP (Peak Area Ratio) mean: from prodrug Example 29
Chain of alkaline phosphatase (P05187 23-506 limits assumed): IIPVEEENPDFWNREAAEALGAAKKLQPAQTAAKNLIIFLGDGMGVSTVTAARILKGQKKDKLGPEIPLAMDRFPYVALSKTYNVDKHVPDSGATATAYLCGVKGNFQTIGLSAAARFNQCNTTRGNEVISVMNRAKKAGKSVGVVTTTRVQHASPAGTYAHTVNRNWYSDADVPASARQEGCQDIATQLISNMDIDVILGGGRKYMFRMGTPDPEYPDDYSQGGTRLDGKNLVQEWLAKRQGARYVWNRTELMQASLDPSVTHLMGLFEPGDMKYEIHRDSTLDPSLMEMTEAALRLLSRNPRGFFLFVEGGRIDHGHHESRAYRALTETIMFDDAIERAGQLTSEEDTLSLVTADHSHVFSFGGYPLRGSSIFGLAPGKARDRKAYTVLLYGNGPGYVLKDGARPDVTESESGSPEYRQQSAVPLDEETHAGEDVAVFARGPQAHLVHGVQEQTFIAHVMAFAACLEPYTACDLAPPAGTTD
Procedure: Conversion of the Mutual MRA-β-Agonist Prodrug (Described in Example 29) to Salmeterol and MRA after Exposure to Alkaline Phosphatase In Vitro
(§1) Reaction Buffer (pH 7.4, 5 mM tris/1 mM Mg^2+/1 mM Zn^2+)
(§2) Diluted 5 ml of 50 mM tris stock, 1 ml of 50 mM MgCl2 stock, and 1 ml of ZnCl2 and then stocked to 10 ml with water.
Alkaline Phosphatase Stock Solution […]
Dissolved ˜2 mg of the mutual prodrug of invention in 10 ml 1:1 acetonitrile/water.
Reaction Product Stock Solution
Dissolved ˜2 mg of each MRA and β-agonist in 20 ml 1:1 acetonitrile/water
The stock solutions were mixed in microcentrifuge tubes, as depicted in the following Table:
The heat block was set at the 37 degrees. Then 0.5 mL of alkaline phosphatase solution was added into 4 preheated Eppendorf tubes. The aliquot 0.5 of prodrug and drug standards were added into preheated Eppendorf tubes. Immediately after vortexing the aliquots of 25 μL of the all reaction solutions were made into the respective 96-well plate positions. The internal standard (75 μl of 500 ng/mL Glyburide) was added into all samples after each aliquots. That procedure was repeated at every 15 minute intervals for ˜4-5 hrs.
The 96-well plates were then analyzed using the LCMS technique.
Half Life Calculation (t1/2)
(§3) In the calculation of half life, we assumed that the disappearance of the mutual prodrug of this invention followed first order kinetics. Therefore,
(§4) The area peak ratio of prodrug vs IS was plotted against time first; the peak area ratios of later time points were normalized with the peak area ratio of initial time point (ASAP). The natural log of the normalized ratio was then plotted against time to generate a linear curve. The slope of this linear curve k was used for the following calculation.
Graphic plotted rate constant of loss K
Drug Concentration Determination
Drug concentrations are calculated by normalizing the peak area ration to (t 0). Thus, calculated drug concentrations at any time point=normalized peak area ratio [t (0) mean/t mean]×initial drug concentration. Data (normalized peak area ratio) for the calculations of drug concentrations are listed in Table 1 and 2 for compounds in Example 29 (GS343071), salmeterol, and the dipeptide (M3 antagonist prepared by Sagara 2006).

[1] = Half life of the prodrug in reaction buffer only (no alkaline phosphatase); assay type: physicochemical; conditions: reaction buffer without alkaline phosphatase; reaction buffer pH 7.4, no alkaline phosphatase
Procedure: as §1, §2
The heat block was set at the 37 degrees. […] The aliquot […] of prodrug and drug standards were added into preheated Eppendorf tubes. Immediately after vortexing the aliquots of 25 μL of the all reaction solutions were made into the respective 96-well plate positions. The internal standard (75 μl of 500 ng/mL Glyburide) was added into all samples after each aliquots. That procedure was repeated at every 15 minute intervals for ˜4-5 hrs.
as §3, §4

For `C[N+]1(Cc2cc(C(O)CNCCCCCCOCCCCc3ccccc3)ccc2OP(=O)(O)O)CCC(CNC(=O)[C@H]2CCCN2C(=O)[C@@H]2C[C@@H](O)CN2C(=O)CC(c2ccc(F)cc2)(c2ccc(F)cc2)c2ccc(F)cc2)CC1` (stereo partly drawn) [Example 29, 1-(5-{1-Hydroxy-2-[6-(4-phenyl-butoxy)-hexylamino]-ethyl}-2-phosphonooxy-benzyl)-4-{[(1-{4-hydroxy-1-[3,3,3-tris-(4-fluoro-phenyl)-propionyl]-pyrrolidine-(S)-2-carbonyl}-pyrrolidine-(R)-2-carbonyl)-amino]-methyl}-1-methyl-piperidinium], the “Half Life t1/2” value (alkaline phosphatase; ALP Enzyme Conc. 0.224 mg/mL, 37 degrees, first order kinetics assumed) was 95.0 min, the “Calculated Compound Final Conc. (μM) at 270 mins.” value (alkaline phosphatase; Added Compound Initial Conc. 86.6 μM in Reaction Mixture, ALP Enzyme Conc. 0.443 mg/mL) was 7.8 µM and the “Example 29 (GS-343071) in ALP (Peak Area Ratio) Normalized” value (alkaline phosphatase; Time 0 mins, 37 degrees) was 1.0000. The “Example 29 (GS-343071) in ALP (Peak Area Ratio) mean” value (alkaline phosphatase; Time 0 mins, 37 degrees) was 0.2030, the “Example 29 (GS-343071) in ALP (Peak Area Ratio) Normalized” value (alkaline phosphatase; Time 15.0 mins, 37 degrees) was 0.5887 and the “Example 29 (GS-343071) in ALP (Peak Area Ratio) mean” value (alkaline phosphatase; Time 15.0 mins, 37 degrees) was 0.1195. The “Example 29 (GS-343071) in ALP (Peak Area Ratio) Normalized” value (alkaline phosphatase; Time 30.0 mins, 37 degrees) was 0.4340, the “Example 29 (GS-343071) in ALP (Peak Area Ratio) mean” value (alkaline phosphatase; Time 30.0 mins, 37 degrees) was 0.0881 and the “Example 29 (GS-343071) in ALP (Peak Area Ratio) Normalized” value (alkaline phosphatase; Time 45.0 mins, 37 degrees) was 0.3313. The “Example 29 (GS-343071) in ALP (Peak Area Ratio) mean” value (alkaline phosphatase; Time 45.0 mins, 37 degrees) was 0.0673, the “Example 29 (GS-343071) in ALP (Peak Area Ratio) Normalized” value (alkaline phosphatase; Time 60.0 mins, 37 degrees) was 0.2850 and the “Example 29 (GS-343071) in ALP (Peak Area Ratio) mean” value (alkaline phosphatase; Time 60.0 mins, 37 degrees) was 0.0579. For the same molecule, the “Example 29 (GS-343071) in ALP (Peak Area Ratio) Normalized” value (alkaline phosphatase; Time 75.0 mins, 37 degrees) was 0.2387, the “Example 29 (GS-343071) in ALP (Peak Area Ratio) mean” value (alkaline phosphatase; Time 75.0 mins, 37 degrees) was 0.0485 and the “Example 29 (GS-343071) in ALP (Peak Area Ratio) Normalized” value (alkaline phosphatase; Time 90.0 mins, 37 degrees) was 0.2079. For the same molecule, the “Example 29 (GS-343071) in ALP (Peak Area Ratio) mean” value (alkaline phosphatase; Time 90.0 mins, 37 degrees) was 0.0422, the “Example 29 (GS-343071) in ALP (Peak Area Ratio) Normalized” value (alkaline phosphatase; Time 105 mins, 37 degrees) was 0.2017 and the “Example 29 (GS-343071) in ALP (Peak Area Ratio) mean” value (alkaline phosphatase; Time 105 mins, 37 degrees) was 0.0410. For the same molecule, the “Example 29 (GS-343071) in ALP (Peak Area Ratio) Normalized” value (alkaline phosphatase; Time 120 mins, 37 degrees) was 0.1788, the “Example 29 (GS-343071) in ALP (Peak Area Ratio) mean” value (alkaline phosphatase; Time 120 mins, 37 degrees) was 0.0363 and the “Example 29 (GS-343071) in ALP (Peak Area Ratio) Normalized” value (alkaline phosphatase; Time 135 mins, 37 degrees) was 0.1643. For the same molecule, the “Example 29 (GS-343071) in ALP (Peak Area Ratio) mean” value (alkaline phosphatase; Time 135 mins, 37 degrees) was 0.0334, the “Example 29 (GS-343071) in ALP (Peak Area Ratio) Normalized” value (alkaline phosphatase; Time 150 mins, 37 degrees) was 0.1397 and the “Example 29 (GS-343071) in ALP (Peak Area Ratio) mean” value (alkaline phosphatase; Time 150 mins, 37 degrees) was 0.0284. For the same molecule, the “Example 29 (GS-343071) in ALP (Peak Area Ratio) Normalized” value (alkaline phosphatase; Time 165 mins, 37 degrees) was 0.1310, the “Example 29 (GS-343071) in ALP (Peak Area Ratio) mean” value (alkaline phosphatase; Time 165 mins, 37 degrees) was 0.0266 and the “Example 29 (GS-343071) in ALP (Peak Area Ratio) Normalized” value (alkaline phosphatase; Time 180 mins, 37 degrees) was 0.1372. For the same molecule, the “Example 29 (GS-343071) in ALP (Peak Area Ratio) mean” value (alkaline phosphatase; Time 180 mins, 37 degrees) was 0.0279, the “Example 29 (GS-343071) in ALP (Peak Area Ratio) Normalized” value (alkaline phosphatase; Time 210 mins, 37 degrees) was 0.1163 and the “Example 29 (GS-343071) in ALP (Peak Area Ratio) mean” value (alkaline phosphatase; Time 210 mins, 37 degrees) was 0.0236. For the same molecule, the “Example 29 (GS-343071) in ALP (Peak Area Ratio) Normalized” value (alkaline phosphatase; Time 240 mins, 37 degrees) was 0.0978, the “Example 29 (GS-343071) in ALP (Peak Area Ratio) mean” value (alkaline phosphatase; Time 240 mins, 37 degrees) was 0.0199 and the “Example 29 (GS-343071) in ALP (Peak Area Ratio) Normalized” value (alkaline phosphatase; Time 270 mins, 37 degrees) was 0.0906. For the same molecule, the “Example 29 (GS-343071) in ALP (Peak Area Ratio) mean” value (alkaline phosphatase; Time 270 mins, 37 degrees) was 0.0184, the half-life (alkaline phosphatase; human, pH 7.4, ALP Enzyme Conc. 0.224 mg/mL, 37 degrees, first order kinetics assumed, read-out: Half Life t1/2) was 62.4 min and the half-life at 86.6 μM (alkaline phosphatase; human, pH 7.4, ALP Enzyme Conc. 0.443 mg/mL, 37 degrees, first order kinetics assumed, read-out: Half Life t1/2) was 43.2 min. For the same molecule, the half-life [1] was 770 min.
In the case of `CN1CCC(CNC(=O)[C@H]2CCCN2C(=O)[C@@H]2CC(O)CN2C(=O)CC(c2ccc(F)cc2)(c2ccc(F)cc2)c2ccc(F)cc2)CC1` (stereo partly drawn) [dipeptide (Sagara 2006), 1-{4-hydroxy-1-[3,3,3-tris-(4-fluoro-phenyl)-propionyl]-pyrrolidine-(S)-2-carbonyl}-pyrrolidine-(R)-2-carboxylic acid-(1-methyl-piperidin-4-ylmethyl)-amide, reference compound], the “Formation of dipeptide (Sagara 2006) in ALP (Peak Area Ratio) Normalized” value (shortened to “Formation … (Peak Area Ratio) Normalized”) (alkaline phosphatase; Time 0 mins, 37 degrees) is reported as 1.0000, the “Formation of dipeptide (Sagara 2006) in ALP (Peak Area Ratio) mean” value (“Formation … (Peak Area Ratio) mean” for short) (alkaline phosphatase; Time 0 mins, 37 degrees) is reported as 0.1765 and the “Formation … (Peak Area Ratio) Normalized” value (alkaline phosphatase; Time 15.0 mins, 37 degrees) is reported as 1.9830. For the same molecule, the “Formation … (Peak Area Ratio) mean” value (alkaline phosphatase; Time 15.0 mins, 37 degrees) was 0.3500, the “Formation … (Peak Area Ratio) Normalized” value (alkaline phosphatase; Time 30.0 mins, 37 degrees) was 2.7365 and the “Formation … (Peak Area Ratio) mean” value (alkaline phosphatase; Time 30.0 mins, 37 degrees) was 0.4830. For the same molecule, the “Formation … (Peak Area Ratio) Normalized” value (alkaline phosphatase; Time 45.0 mins, 37 degrees) was 2.7989, the “Formation … (Peak Area Ratio) mean” value (alkaline phosphatase; Time 45.0 mins, 37 degrees) was 0.4940 and the “Formation … (Peak Area Ratio) Normalized” value (alkaline phosphatase; Time 60.0 mins, 37 degrees) was 3.0595. For the same molecule, the “Formation … (Peak Area Ratio) mean” value (alkaline phosphatase; Time 60.0 mins, 37 degrees) was 0.5400, the “Formation … (Peak Area Ratio) Normalized” value (alkaline phosphatase; Time 75.0 mins, 37 degrees) was 3.2210 and the “Formation … (Peak Area Ratio) mean” value (alkaline phosphatase; Time 75.0 mins, 37 degrees) was 0.5685. The “Formation … (Peak Area Ratio) Normalized” value (alkaline phosphatase; Time 90.0 mins, 37 degrees) was 3.6402, the “Formation … (Peak Area Ratio) mean” value (alkaline phosphatase; Time 90.0 mins, 37 degrees) was 0.6425 and the “Formation … (Peak Area Ratio) Normalized” value (alkaline phosphatase; Time 105 mins, 37 degrees) was 3.8612. For the same molecule, the “Formation … (Peak Area Ratio) mean” value (alkaline phosphatase; Time 105 mins, 37 degrees) was 0.6815, the “Formation … (Peak Area Ratio) Normalized” value (alkaline phosphatase; Time 120 mins, 37 degrees) was 3.9207 and the “Formation … (Peak Area Ratio) mean” value (alkaline phosphatase; Time 120 mins, 37 degrees) was 0.6920. The “Formation … (Peak Area Ratio) Normalized” value (alkaline phosphatase; Time 135 mins, 37 degrees) was 4.0793, the “Formation … (Peak Area Ratio) mean” value (alkaline phosphatase; Time 135 mins, 37 degrees) was 0.7200 and the “Formation … (Peak Area Ratio) Normalized” value (alkaline phosphatase; Time 150 mins, 37 degrees) was 4.2890. For the same molecule, the “Formation … (Peak Area Ratio) mean” value (alkaline phosphatase; Time 150 mins, 37 degrees) was 0.7570, the “Formation … (Peak Area Ratio) Normalized” value (alkaline phosphatase; Time 165 mins, 37 degrees) was 4.4193 and the “Formation … (Peak Area Ratio) mean” value (alkaline phosphatase; Time 165 mins, 37 degrees) was 0.7800. For the same molecule, the “Formation … (Peak Area Ratio) Normalized” value (alkaline phosphatase; Time 180 mins, 37 degrees) was 4.7082, the “Formation … (Peak Area Ratio) mean” value (alkaline phosphatase; Time 180 mins, 37 degrees) was 0.8310 and the “Formation … (Peak Area Ratio) Normalized” value (alkaline phosphatase; Time 210 mins, 37 degrees) was 5.0227. For the same molecule, the “Formation … (Peak Area Ratio) mean” value (alkaline phosphatase; Time 210 mins, 37 degrees) was 0.8865, the “Formation … (Peak Area Ratio) Normalized” value (alkaline phosphatase; Time 240 mins, 37 degrees) was 5.0567 and the “Formation … (Peak Area Ratio) mean” value (alkaline phosphatase; Time 240 mins, 37 degrees) was 0.8925. For the same molecule, the “Formation … (Peak Area Ratio) Normalized” value (alkaline phosphatase; Time 270 mins, 37 degrees) was 5.6997 and the “Formation … (Peak Area Ratio) mean” value (alkaline phosphatase; Time 270 mins, 37 degrees) was 1.0060.
